Reference: PubChem BioAssay AID504335 (Southern Research Specialized Biocontainment Screening …, 2011)
Activity calls are given as the source filed them. The rule behind the calls is not given here.

Legend:
[1] = tested on: mammalian cell cytotoxicity, viability; assay: dose response, cytotoxicity control for M. tuberculosis inhibitor project, purified and synthesized compounds (AID 504335)
[2] = as above; details: mammalian cell cytotoxicity, viability; at 100 µM (top of the series)

CC(=NCc1ccc2c(c1)OCO2)C1=C(O)c2ccccc2C1=O
CC50 [1]: > 100 µM (inactive)

Oc1ccccc1/C=N/Nc1ccnc(SCc2ccccc2)n1
CC50 [1]: 93.8 µM

O=C(NCC(c1cccs1)N1CCOCC1)c1cc([N+](=O)[O-])cc([N+](=O)[O-])c1 (centres undefined)
CC50 [1]: 96.7 µM

CC(C)NC(=O)c1sc(=S)n2c1[nH]c(=O)c1ccc(C(=O)NCCc3ccc(Cl)cc3)cc12
CC50 [1]: 99.9 µM

Cc1nc(SCC(=O)NC2CCCCC2)[nH]c(=O)c1C
viability [2]: 88.8% (inactive)

COc1cc(NC(=O)C/C(C)=N/NC(=O)c2ccccn2)c(OC)cc1Cl
viability [2]: 92.4% (inactive)

COC(=O)C1CC(=O)N(c2ccc(OCc3ccccc3Cl)cc2)C1 (centres undefined)
viability [2]: 90.6% (inactive)

Cc1ccc(NC(=O)C2C3/C=C\CCCCC32)cc1C (centres undefined)
viability [2]: 87.6% (inactive)

CCC(C)Nc1ccc(NC(C)CC)cc1 (centres undefined)
CC50 [1]: 14.3 µM

O=C(CSc1nc2ccccc2c(=O)[nH]1)NC1CCCCC1
viability [2]: 81.8% (inactive)

S=c1nc[nH]c2nc[nH]c12
CC50 [1]: 38.7 µM

O=C(/C=C\c1cccs1)N1CCN(Cc2ccc3c(c2)OCO3)CC1
viability [2]: 87.7% (inactive)

Cc1ccc2ccc3ccc(C)nc3c2n1
CC50 [1]: 58.5 µM

COC(=O)c1cc(=O)n(-c2ccc(F)cc2)c(=Nc2ccc(F)cc2)s1
CC50 [1]: 25.7 µM

CCc1ccc(/C=C2/C(=O)N(C)C(=S)N2CC(=O)OC)s1
viability [2]: 92% (inactive)

O=C(CSc1nc2ccccc2c(=O)[nH]1)NCc1ccc(Cl)cc1
viability [2]: 83% (inactive)

COC(=O)CCc1nc2c(C#N)c(-c3ccc(Cl)cc3)ccn2n1
viability [2]: 99.2% (inactive)

CNc1nc(SCc2ccccc2Cl)nc2c1CCCC2
CC50 [1]: 36 µM

CCOC(=O)COc1ccc(/C=C2\NC(=S)N(CC)C2=O)cc1
viability [2]: 94.5% (inactive)

CCOC(=O)COn1c2c(c3c4no[n+]([O-])c4ccc31)CCCC2
viability [2]: 87.8% (inactive)

Cc1cccc(/C=C/C(=O)c2ccc([N+](=O)[O-])o2)c1
CC50 [1]: 20.2 µM

Cc1ccc2c(c1)c(C1=c3ccccc3=NC1=O)c(O)n2C
CC50 [1]: 10.1 µM

CCOC(=O)c1ccc(NC(=O)Cn2ncc(Cl)c(Cl)c2=O)cc1
CC50 [1]: 7.71 µM

COC(=O)C(C)Oc1ccc(-c2nccc(-c3ccccn3)n2)cc1 (centres undefined)
viability [2]: 95.7% (inactive)
